Data set [1] relates to FKBP12-containing fusion proteins (3xFKBP-p65 / ZFHD1-3xFKBP transcription factors). As to the kind of experiment: Dimerizer-regulated gene expression (SEAP or hGH reporter) in transfected cells. Format: cell-based, human. As to conditions: for activation of transcription with stably integrated constructs: cells in which transcription factor and reporter gene constructs are all stably integrated. Here is the method:
To screen clones it is convenient to transiently transfect cells in a 96-well format. Lipofectamine is used to introduce 50 ng total DNA/96-well under conditions recommended by the manufacturer (Gibco/BRL). If introducing both the transcription factor and target gene plasmids transiently, use 20 ng of each plasmid and 10 ng of carrier DNA (it may be necessary to optimize plasmid ratios and transfection conditions for each cell type). If only introducing one plasmid, bring to 50 ng with carrier DNA.
Following transfection, add medium +/−100 nM AP1510 dimerizer (or try a range of concentrations).
After overnight incubation (or longer), assay for target gene expression.
Secreted alkaline phosphatase activity can be easily measured from the supernatant of appropriately transfected cells using fluorescence-(see (10)), or chemiluminescence-(Tropix, Bedford, Mass.) based assays. Samples to be tested should first be incubated at 65° C. for 1 hour to inactivate endogenous alkaline phosphatase activity.
In gene regulation applications, expression becomes detectable at an AP1510 concentration of approximately 10 nM, and peaks at approximately 100 nM. When SEAP or hGH reporter systems are used, expression can be easily detected after an overnight incubation with dimerizer. In our experience, the efficacy is generally similar for other dimerization applications. A range of concentrations from 1 nM to 1 uM will typically provide a good dose-response profile in both cases.
(Reporter assays use an easily measured gene product as a stand-in for the process of interest.)

A short description of data set [2]: Immunosuppressive activity of dimerizer.
The next data set relates to cells. As to the kind of experiment: Toxicity to cells. Format: cell-based.
Data set [3] can be described thus: Solubility in aqueous culture medium. In kind it is physicochemical. To be noted: serial dilution in (aqueous) culture medium. Here is the method: Working concentrations of AP1510 can be obtained by adding compound directly from ethanol stocks, or by diluting serially in culture medium just before use. In the latter case it is recommended that the highest concentration not exceed 5 uM, to ensure complete solubility in the (aqueous) medium. In either case, the final concentration of ethanol in the medium added to mammalian cells should be kept below 0.5% (a 200-fold dilution of a 100% ethanol solution) to prevent detrimental effects of the solvent on the cells.

In data set [4] the test system is transmembrane receptors that are activated by oligomerization. As to the kind of experiment: Dimerization of transmembrane receptors. In kind it is cell-based.
For data set [5] the following is noted: linker positioned in the calcineurin binding domain of FK506; cited from earlier work.
A further data set addresses FKBP12 (Homo sapiens, UniProt P62942). To be noted: linker positioned in the calcineurin binding domain of FK506; cited from earlier work.
Where [6] appears, read: gene regulation applications, SEAP or hGH reporter, overnight incubation with dimerizer.

Read-outs that look alike come from different tables or passages of the source.

Sequence of FKBP12 (P62942 whole entry, the tested form may be a part): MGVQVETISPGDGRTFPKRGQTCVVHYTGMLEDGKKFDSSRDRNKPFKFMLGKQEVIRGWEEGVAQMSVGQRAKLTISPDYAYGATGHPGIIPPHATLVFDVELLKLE

`CCC(C)(C)C(=O)C(=O)N1CCCC[C@H]1C(=O)O[C@H](CCc1ccc(OC)c(OC)c1)c1cccc(OCC(=O)NCCNC(=O)COc2cccc([C@@H](CCc3ccc(OC)c(OC)c3)OC(=O)[C@@H]3CCCCN3C(=O)C(=O)C(C)(C)CC)c2)c1` [AP1510]: the “activation of transcription with stably integrated constructs” value in data set [1] is “activates transcription efficiently”. Further, in data set [1] (gene regulation applications), the “activation of transcription compared with FK1012” value is “at lower concentrations and to a higher level than FK1012”. Besides, in data set [1] (setting [6]), the “AP1510 concentration at which expression becomes detectable” value is listed as “approximately 10 nM” and the “AP1510 concentration at which expression peaks” value is recorded as “approximately 100 nM”. The immunosuppressive activity result in data set [2] is “no immunosuppressive activity”. Moreover, in the data set on cells, the toxicity to cells entry is on record as “non-toxic to cells”. For the same molecule, the “highest concentration ensuring complete solubility in medium” value in data set [3] was not above 5 µM. The “dimerization of transmembrane receptors” value in data set [4] was “successfully used to dimerize”.

As for FK1012, the “activation of transcription with stably integrated constructs” value in data set [1] is recorded as “poor”. Moreover, the immunosuppressive activity entry in data set [5] was “abolishes immunosuppressive activity”. Moreover, on FKBP12, the FKBP12 binding result is on record as “unaffected”.

The record behind these values is US20040265288A1, “New applications of gene therapy technology” (priority 1995, published 2004).
